From US20240116885A1, “BENZOTHIAZOLE AND QUINOLINE DERIVATIVES AND THEIR USE” (Shanghai Yao Yuan Biotechnology Co., Ltd., priority 2020, published 2024) come the findings set out here.

One assay addresses ALPK1 (Homo sapiens (Human), UniProt Q96QP1). As to the kind of experiment: ALPK1 in vitro kinase assay (HTRF, TIFA phosphorylation). Format: biochemical. The conditions noted are these: ADP-Heptose activated ALPK1. As for the experimental part:
ALPK1 kinase activity was measured in an in vitro assay using ADP-Heptose as the ALPK1 ligand and activator of its kinase activity and TIFA protein as the ALPK1 phosphorylation substrate. Since phosphorylated TIFA proteins oligomerize, Homogeneous Time-Resolved Fluorescence (HTRF) was used to measure protein:protein interaction between HA-tagged TIFA proteins as an indicator of TIFA phosphorylation.
In brief, dose-response studies were performed with HEK293 cells cultured in Dulbecco's Modified Eagle Medium (DMEM) supplemented 10% fetal bovine serum (FBS, Hyclone™) containing antibiotics (pen/strep, G418) in 384-well assay plates. Each well contained 0.1 mg TIFA, ALPK1 (2 nM final concentration in reaction mixture) and kinase buffer (100 mM of HEPES pH 7.4, 4 mM DTT, 40 mM MgCl2, 20 mM of β-Glycerol phosphate disodium salt, 0.4 mM of Na3VO4, 0.16 mg/mL). Titrations of the test compounds were prepared in dimethylsulphoxide (DMSO). The reaction was initiated by addition of ATP and ADP-Heptose.
For HTRF, samples were incubated with a Tb cryptate-labeled anti-HA antibody for capturing HA-tagged proteins according to the manufacturer's instructions (PerkinElmer™, CisBio™) and the fluorescence signal was quantified (Tecan Infinite F NANO+). HTRF signals were calculated as the HTRF ratio (ratio of fluorescence measured at 665 nm and 620 nm)×104 (thereby using the signal at 620 nm as an internal standard).
IC50 values were determined using 3- or 4-parameter logistic equation using GraphPad Prism version 6.00. The reference compound, A027, was used as a positive control for each plate.
For orientation: In TR-FRET formats the signal depends on donor and acceptor labels being close together.

The test system of assay [1] is ALPK1-dependent NFκB reporter gene activation. As to the kind of experiment: NFκB gene reporter alkaline phosphatase assay in HEK293 G9 cells. The conditions noted are these: Homo sapiens; HEK293 G9 cells stimulated with D-glycero-D-manno-6-fluoro-heptose-1β-S-ADP. Format: cell-based. The method, then: An alkaline phosphatase reporter assay system was used to measure inhibition of ALPK1-dependent NFκB reporter gene activation. Briefly, HEK293 cells stably expressing an NF-kB reporter (referred to herein as “G9 cells”) were maintained in DMEM as described above. For the assay, cells were seeded into 96-well plates at a density of 10,000 cells/well in Freestyle™ 293 Expression Medium (ThermoFisher), and allowed to attach overnight. Cells were pretreated with serially diluted compounds for 30 min and then stimulated with D-glycero-D-manno-6-fluoro-heptose-1β-S-ADP. […] NFkB gene activation was detected using the chromogenic substrate, para-nitrophenyl phosphate (pNPP) according to the manufacturer's protocols (pNPP Phosphatase Assay, Beyotime Biotechnology).

Broadly, the IC50 is the point on the concentration scale where inhibition reaches its midpoint. Higher therefore signals a need for much substance.

ALPK1, sequence (Q96QP1 whole entry): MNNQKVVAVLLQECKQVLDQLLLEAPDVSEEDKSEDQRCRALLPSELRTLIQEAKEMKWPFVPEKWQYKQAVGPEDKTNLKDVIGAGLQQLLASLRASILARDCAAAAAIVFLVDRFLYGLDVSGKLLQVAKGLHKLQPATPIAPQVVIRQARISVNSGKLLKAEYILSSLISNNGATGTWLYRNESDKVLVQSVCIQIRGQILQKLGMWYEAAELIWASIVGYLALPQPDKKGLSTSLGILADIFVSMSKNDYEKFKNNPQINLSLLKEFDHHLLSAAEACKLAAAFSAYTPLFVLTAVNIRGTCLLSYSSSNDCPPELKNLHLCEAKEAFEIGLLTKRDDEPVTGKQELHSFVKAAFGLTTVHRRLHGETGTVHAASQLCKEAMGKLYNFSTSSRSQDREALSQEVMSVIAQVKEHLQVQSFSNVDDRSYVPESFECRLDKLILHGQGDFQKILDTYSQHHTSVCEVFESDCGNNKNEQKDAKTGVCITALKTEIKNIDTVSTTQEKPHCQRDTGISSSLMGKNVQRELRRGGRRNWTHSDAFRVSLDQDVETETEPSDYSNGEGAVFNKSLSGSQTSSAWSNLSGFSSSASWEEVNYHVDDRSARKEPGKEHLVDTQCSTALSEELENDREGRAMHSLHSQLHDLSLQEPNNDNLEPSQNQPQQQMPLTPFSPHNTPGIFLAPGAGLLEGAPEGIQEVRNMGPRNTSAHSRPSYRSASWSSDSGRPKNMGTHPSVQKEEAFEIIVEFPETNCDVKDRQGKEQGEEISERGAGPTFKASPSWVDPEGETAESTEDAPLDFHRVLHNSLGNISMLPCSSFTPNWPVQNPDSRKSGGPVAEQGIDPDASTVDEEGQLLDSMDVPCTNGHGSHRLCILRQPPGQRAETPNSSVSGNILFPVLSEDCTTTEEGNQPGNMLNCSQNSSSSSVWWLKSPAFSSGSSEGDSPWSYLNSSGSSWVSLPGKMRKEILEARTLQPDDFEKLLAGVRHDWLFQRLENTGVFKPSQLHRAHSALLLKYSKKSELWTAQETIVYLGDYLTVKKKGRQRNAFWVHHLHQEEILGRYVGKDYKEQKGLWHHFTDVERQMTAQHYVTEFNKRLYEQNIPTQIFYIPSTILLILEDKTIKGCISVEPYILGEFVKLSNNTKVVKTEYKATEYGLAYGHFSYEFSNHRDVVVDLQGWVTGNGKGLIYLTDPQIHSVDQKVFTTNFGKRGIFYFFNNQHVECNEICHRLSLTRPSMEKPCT

Regarding `COc1cccc2ccc(NC(=O)c3c(F)cc(N4CCNCC4)cc3F)nc12` [Compound Q001, 2,6-difluoro-N-(8-methoxyquinolin-2-yl)-4-(piperazin-1-yl)benzamide], the IC50 came out at 45 nM against ALPK1 and 1240 nM in assay [1].

In the case of `COc1cccc2ccc(NC(=O)c3c(F)cc(N4CCN(C)CC4)cc3F)nc12` [Compound Q002, 2,6-difluoro-N-(8-methoxyquinolin-2-yl)-4-(4-methylpiperazin-1-yl)benzamide], the figures for the IC50 (at ALPK1; in assay [1]) were 157 nM and 2300 nM, respectively.

Consider `COc1cccc2ccc(NC(=O)c3c(F)cc(N4CCC(O)CC4)cc3F)nc12` [Compound Q003, 2,6-difluoro-4-(4-hydroxypiperidin-1-yl)-N-(8-methoxyquinolin-2-yl)benzamide], for which the IC50 at ALPK1 is 369 nM; in assay [1], 2970 nM.

On to `COc1cccc2ccc(NC(=O)c3c(F)ccc(CN4CCNCC4)c3F)nc12` [Compound Q004, 2,6-difluoro-N-(8-methoxyquinolin-2-yl)-3-(piperazin-1-ylmethyl)benzamide], for which the IC50 was 33 nM on ALPK1 and 4300 nM in assay [1].

Take `COc1cccc2ccc(NC(=O)c3c(F)ccc(N4CCNCC4)c3F)nc12` [Compound Q005, 2,6-difluoro-N-(8-methoxyquinolin-2-yl)-3-(piperazin-1-yl)benzamide]: the IC50 against ALPK1 amounted to 258 nM; in assay [1], 1370 nM.

In assay [1], `COc1cc(OC)c2nc(NC(=O)c3c(F)cc(N4CCNCC4)cc3F)ccc2c1` [Compound Q006, N-(6,8-dimethoxyquinolin-2-yl)-2,6-difluoro-4-(piperazin-1-yl)benzamide] displayed an IC50 of 11100 nM.

Take `COc1cc(F)cc2ccc(NC(=O)c3c(F)cc(N4CCNCC4)cc3F)nc12` [Compound Q007, 2,6-difluoro-N-(6-fluoro-8-methoxyquinolin-2-yl)-4-(piperazin-1-yl)benzamide]: the results for the IC50 (against ALPK1; in assay [1]) were 176 nM and 6780 nM, respectively.

In the case of `COc1cccc2c(C)cc(NC(=O)c3c(F)cc(N4CCNCC4)cc3F)nc12` [Compound Q008, 2,6-difluoro-N-(8-methoxy-4-methylquinolin-2-yl)-4-(piperazin-1-yl)benzamide], the IC50 against ALPK1 was found to be 149 nM; in assay [1], 2920 nM.

In the case of `COc1cccc2ncc(NC(=O)c3c(F)cc(N4CCNCC4)cc3F)nc12` [Compound Q009, 2,6-difluoro-N-(8-methoxyquinoxalin-2-yl)-4-(piperazin-1-yl)benzamide], the IC50 at ALPK1 came to 178 nM; in assay [1], 3720 nM.

Take `COc1cccc2sc(NC(=O)c3c(F)cc(N4CC5CC(C4)N5)cc3F)nc12` [Compound T001, 4-(3,6-diazabicyclo[3.1.1]heptan-3-yl)-2,6-difluoro-N-(4-methoxybenzo[d]thiazol-2-yl)benzamide]: the values for the IC50 (on ALPK1; in assay [1]) were 95 nM and 1310 nM, respectively.

`COc1cccc2sc(NC(=O)c3c(C)cc(N4CCNCC4)cc3F)nc12` [Compound T002, 2-fluoro-N-(4-methoxybenzo[d]thiazol-2-yl)-6-methyl-4-(piperazin-1-yl)benzamide]: the results for the IC50 (on ALPK1; in assay [1]) were 176 nM and 2460 nM, respectively.

For `COc1cccc2sc(NC(=O)c3c(F)cc(-c4cccc(C(=O)O)c4)cc3F)nc12` [Compound T003, 3′,5′-difluoro-4′-((4-methoxybenzo[d]thiazol-2-yl)carbamoyl)-[1,1′-biphenyl]-3-carboxylic acid], the figures for the IC50 (on ALPK1; in assay [1]) were 159 nM and 1490 nM, respectively.

Consider `CCN1CCN(c2cc(F)c(C(=O)Nc3nc4c(OC)cccc4s3)c(F)c2)CC1` [Compound T004, 4-(4-ethylpiperazin-1-yl)-2,6-difluoro-N-(4-methoxybenzo[d]thiazol-2-yl)benzamide], for which the IC50 amounted to 131 nM against ALPK1 and 1980 nM in assay [1].

On to `CCCN1CCN(c2cc(F)c(C(=O)Nc3nc4c(OC)cccc4s3)c(F)c2)CC1` [Compound T005, 2,6-difluoro-N-(4-methoxybenzo[d]thiazol-2-yl)-4-(4-propylpiperazin-1-yl)benzamide], for which the IC50 turned out to be 81 nM at ALPK1 and 2420 nM in assay [1].

With `COc1cccc2sc(NC(=O)c3c(Cl)cc(N4CCNCC4)cc3Cl)nc12` [Compound T008, 2,6-dichloro-N-(4-methoxybenzo[d]thiazol-2-yl)-4-(piperazin-1-yl)benzamide], the IC50 against ALPK1 stood at 57 nM; in assay [1] it was 1950 nM.

As for `O=C(Nc1nc2c(Br)cccc2s1)c1c(F)cccc1F` [Compound T009, N-(4-bromobenzo[d]thiazol-2-yl)-2,6-difluorobenzamide], the IC50 at ALPK1 is 415 nM; in assay [1], 5860 nM.

Consider `COc1cccc2sc(NC(=O)c3c(F)cc(N4CCNCC4)cc3Cl)nc12` [Compound T010, 2-chloro-6-fluoro-N-(4-methoxybenzo[d]thiazol-2-yl)-4-(piperazin-1-yl)benzamide], for which the results for the IC50 (against ALPK1; in assay [1]) were 49 nM and 1640 nM, respectively.

Regarding `COC(=O)C1CCN(c2cc(F)c(C(=O)Nc3nc4c(OC)cccc4s3)c(F)c2)CC1` [Compound T011, methyl 1-(3,5-difluoro-4-((4-methoxybenzo[d]thiazol-2-yl)carbamoyl)phenyl)piperidine-4-carboxylate], the IC50 amounted to 420 nM on ALPK1 and 6650 nM in assay [1].

Turning to `O=C(Nc1nc2c(C3CC3)cccc2s1)c1c(F)cccc1F` [Compound T012, N-(4-cyclopropylbenzo[d]thiazol-2-yl)-2,6-difluorobenzamide], the IC50 stood at 970 nM at ALPK1 and 5950 nM in assay [1].

`COc1cccc2sc(NC(=O)c3c(F)cc(NCCN(C)C)cc3F)nc12` [Compound T013, 4-((2-(dimethylamino)ethyl)amino)-2,6-difluoro-N-(4-methoxybenzo[d]thiazol-2-yl)benzamide]: the figures for the IC50 (on ALPK1; in assay [1]) were 507 nM and 5220 nM, respectively.

For `COc1cccc2sc(NC(=O)c3c(F)cc(N4CCNCC4C)cc3F)nc12` (centres unmarked) [Compound T014, 2,6-difluoro-N-(4-methoxybenzo[d]thiazol-2-yl)-4-(2-methylpiperazin-1-yl)benzamide], in assay [1], the IC50 was 1310 nM. That is a single-digit micromolar value.

For `COc1cccc2sc(NC(=O)c3c(F)cc(N4CCNC(C)C4)cc3F)nc12` (centres unmarked) [Compound T015, 2,6-difluoro-N-(4-methoxybenzo[d]thiazol-2-yl)-4-(3-methylpiperazin-1-yl)benzamide], the IC50 against ALPK1 amounted to 349 nM; in assay [1], 4470 nM.

As to `O=C(Nc1nc2c(Br)cccc2s1)c1c(F)ccc(N2CCNCC2)c1F` [Compound T016, N-(4-bromobenzo[d]thiazol-2-yl)-2,6-difluoro-3-(piperazin-1-yl)benzamide], the values for the IC50 (against ALPK1; in assay [1]) were 47 nM and 2220 nM, respectively.

Turning to `COc1cccc2sc(NC(=O)c3c(F)cc(CN4CCNCC4)cc3F)nc12` [Compound T018, 2,6-difluoro-N-(4-methoxybenzo[d]thiazol-2-yl)-4-(piperazin-1-ylmethyl)benzamide], the IC50 in assay [1] turned out to be 2460 nM.

In the case of `O=C(Nc1nc2c(Br)cccc2s1)c1c(F)cc(CN2CCNCC2)cc1F` [Compound T020, N-(4-bromobenzo[d]thiazol-2-yl)-2,6-difluoro-4-(piperazin-1-ylmethyl)benzamide], the IC50 on ALPK1 came to 100 nM; in assay [1] it was 1570 nM.

In the case of `O=C(Nc1nc2c(Br)cccc2s1)c1c(F)cc(CCN2CCNCC2)cc1F` [Compound T021, N-(4-bromobenzo[d]thiazol-2-yl)-2,6-difluoro-4-(2-(piperazin-1-yl)ethyl)benzamide], the IC50 worked out at 148 nM on ALPK1 and 1200 nM in assay [1].

`O=C(Nc1nc2c(F)cc(F)cc2s1)c1c(F)cc(N2CCNCC2)cc1F` [Compound T035] showed an IC50 in assay [1] of 5020 nM.

In the case of `O=C(Nc1nc2ccccc2s1)c1c(F)cc(N2CCNCC2)cc1F` [Compound T041, N-(benzo[d]thiazol-2-yl)-2,6-difluoro-4-(piperazin-1-yl)benzamide], inhibition in assay [1] was half-maximal at 3960 nM (IC50).

For `CC(C)Oc1cccc2sc(NC(=O)c3c(F)cc(N4CCNCC4)cc3F)nc12` [Compound T056, 2,6-difluoro-N-(4-isopropoxybenzo[d]thiazol-2-yl)-4-(piperazin-1-yl)benzamide], the IC50 in assay [1] was found to be 7400 nM.

In assay [1], `CCOc1cccc2sc(NC(=O)c3c(F)cc(N4CCNCC4)cc3F)nc12` [Compound T057, N-(4-ethoxybenzo[d]thiazol-2-yl)-2,6-difluoro-4-(piperazin-1-yl)benzamide] displayed an IC50 of 8700 nM.
